Measured values as given in ChEMBL document CHEMBL1759983, “Design and SAR of macrocyclic Hsp90 inhibitors with increased metabolic stability and potent cell-proliferation activity” (Bioorg Med Chem Lett, 2011).
Converted amounts (≈) assume the structure as drawn.

Key:
[1] = Aqueous solubility of the compound; type: physicochemical
[2] = target: Heat shock protein HSP 90-alpha (Homo sapiens, UniProt P07900)
Description: Inhibition of Hsp90alpha after 3 hrs by fluorescence polarization assay

HCT-116 = test: Antiproliferative activity against human HCT116 cells measured on day 4 by Cell titer-glo assay; type: functional, cell-based
in vitro = conditions: rat, liver microsomes

Structure (SMILES)	solubility [1] [µg/mL]	IC50 [2] [nM]	EC50 (HCT-116; Homo sapiens, HCT-116, 96 h) [nM]	half-life (in vitro) [min]	EC50 (HCT-116; hct-116) [nM]
Cc1c2c(n3c1CCCNC[C@H](C)Nc1cc-3ccc1C(N)=O)CC(C)(C)CC2=O	> 100	–	–	–	–
Cc1c2c(n3c1CCNCCCNc1cc-3ccc1C(N)=O)CC(C)(C)CC2=O	–	400	8140	–	–
Cc1c2c(n3c1CCNCCNc1cc-3ccc1C(N)=O)CC(C)(C)CC2=O	> 100	12400	–	15	–
Cc1c2c(n3c1CCCNCC(C)(C)CNc1cc-3ccc1C(N)=O)CC(C)(C)CC2=O	6 (≈ 13.7 µM)	290	–	3	210
Cc1c2c(n3c1CCCNC(C)(C)CNc1cc-3ccc1C(N)=O)CC(C)(C)CC2=O	52 (≈ 123 µM)	140	–	15	80
Cc1c2c(n3c1CCCNCCNc1cc-3ccc1C(N)=O)CC(C)(C)CC2=O	35 (≈ 88.7 µM)	920	820	> 30	–
Cc1c2c(n3c1CCNCC[C@H](C)Nc1cc-3ccc1C(N)=O)CC(C)(C)CC2=O	67 (≈ 164 µM)	–	–	–	–
Cc1c2c(n3c1CCCNCC(C)(C)Nc1cc-3ccc1C(N)=O)CC(C)(C)CC2=O	45 (≈ 106 µM)	830	620	> 30	–
Cc1c2c(n3c1CCNCC(C)CNc1cc-3ccc1C(N)=O)CC(C)(C)CC2=O (stereo not drawn)	39 (≈ 95.5 µM)	360	250	5	–
Cc1c2c(n3c1CCNCC(O)CNc1cc-3ccc1C(N)=O)CC(C)(C)CC2=O (stereo not drawn)	70 (≈ 171 µM)	320	600	10	–
Cc1c2c(n3c1CCNCCOCCNc1cc-3ccc1C(N)=O)CC(C)(C)CC2=O	73 (≈ 172 µM)	570	830	28	–
Cc1c2c(n3c1CNCCCCNc1cc-3ccc1C(N)=O)CC(C)(C)CC2=O	18 (≈ 45.6 µM)	> 5000	> 5000	18	–
Cc1c2c(n3c1CNCCC[C@H](C)Nc1cc-3ccc1C(N)=O)CC(C)(C)CC2=O	16 (≈ 39.2 µM)	> 5000	> 5000	7	–
Cc1c2c(n3c1CCC(C)NCCNc1cc-3ccc1C(N)=O)CC(C)(C)CC2=O (stereo not drawn)	69 (≈ 169 µM)	1240	940	26	–
Cc1c2c(n3c1CC[C@@H](C)N[C@H](C)CNc1cc-3ccc1C(N)=O)CC(C)(C)CC2=O	> 100	90	30	15	–
Cc1c2c(n3c1CC[C@H](C)N[C@H](C)CNc1cc-3ccc1C(N)=O)CC(C)(C)CC2=O	58 (≈ 137 µM)	430	360	7	–
Cc1c2c(n3c1CCCN(C)C[C@H](C)Nc1cc-3ccc1C(N)=O)CC(C)(C)CC2=O	31 (≈ 73.4 µM)	150	–	11	80
CC(=O)N1CCc2c(C)c3c(n2-c2ccc(C(N)=O)c(c2)N[C@@H](C)CC1)CC(C)(C)CC3=O	19 (≈ 42.2 µM)	110	150	9	–
